Experimental data reported in EP3825318A1, “OXALAMIDO-SUBSTITUTED TRICYCLIC INHIBITORS OF HEPATITIS B VIRUS” (priority 2019, dated 2021).

system: HBV; assay: Anti-HBV activity in vitro: extracellular HBV DNA by qPCR in HepAD38 cells; format: cell-based; conditions: Hepatitis B virus, 96 hours incubation, extracellular HBV DNA by direct qPCR, read-out: HBV inh EC50
Excerpt: HepAD38 cell line (Ladner et al., Antimicrob Agents Chemother, 1997, 41, 1715-20) was used for HBV inhibition assays. HepAD38 is a subclone, derived from Hepatoblastoma cell line HepG2 (ATCC® Number: HB-8065™), that expresses HBV genome under the transcriptional control of a tetracycline-responsive promoter in a TET-OFF system: addition of tetracycline (TET) or doxycycline suppresses HBV replication, while its removal switches on the process allowing HBV viral particles release in the cell supernatant. HepAD38 cell line is maintained in DMEM/F12, supplemented with 10% of fetal bovine serum, 1% of glutamine, 1% of penicillin/streptomycin, 0.4 mg/ml G418 and 0,3 ug/ml tetracycline. For the HBV inhibition assay, doxycycline-free medium is used in order to allow virion production.
HBV inhibition activity in vitro was performed in 96 multiwell plates. During the initial (primary) screening, compounds were first tested in triplicates at concentrations of 0.02 µM, 0.1µM, 0.5µM and 1µM. For selected compounds, an 8-point dose-response curve was obtained using 1:2 serial dilutions (starting from 0.01µM, 0.1µM, 0.4µM or 5 µM, depending on the degree of inhibition observed during the primary screening). From the dose-response curves, half maximal effective concentration (EC50) could be calculated (see also below).
In more detail, compounds - typically dissolved in DMSO stock solutions - were diluted to 2x the final desired concentration in 100 µl of the above medium (without doxycycline) and plated in three replicates in the 96-well plates.
Simultaneously, HepAD38 cells - extensively pre-washed in tetracycline-free medium in order to induce HBV production - were suspended at 2^∗10^4 cells in 100 µl of tetracycline-free medium and added to each well of the plate, to yield a final assay volume of 200 µl DMSO - used for stock solutions and compounds dilutions - which was always present in the assays at a final concentration of 0.5%.
Plates were then incubated 96 hours at 37°C and then subjected to cell viability assays and extracellular HBV quantification, in order to evaluate both the cytotoxic potential and the antiviral activity of compounds. Cytotoxicity was assessed by a commercial fluorescence assay that measures the metabolic activity of cells, directly related to cell viability (Cell Titer Blue, Promega). Anti-HBV activity was evaluated by quantification of extracellular HBV DNA with direct qPCR. In particular, supernatant was collected and centrifuged for cell debris clarification, viral DNA was extracted from virions by addition of lysis buffer (1 mM 1,4-dithiothreitol, 0.2% sodium dodecyl sulphate) and incubated at 95°C for 10 min. Samples were then diluted 1:40 and real time PCR amplification was performed with SYBR green assay (Power SYBR™ Green PCR Master Mix-Thermo Fisher Scientific) and specific HBV primer (HBV-DF:5'-[…]-3' (SEQ ID No. 1), HBV-DR:5'-[…]-3' (SEQ ID No. 2)).
Antiviral activity data for each compound are reported as EC50 threshold value (see Table 1 legend). Excel and Graphpad Prism programs are typically used for data elaboration and EC50 calculation.

Row | SMILES | EC50 [nM]
1 | C[C@@H](NC(=O)C(=O)N1C[C@H]2COc3c(cn(C)c3C(=O)Nc3ccc(F)c(Cl)c3)S(=O)(=O)N[C@H]2C1)C(F)(F)F [Example E1, (3aR,10aR)-N-(3-chloro-4-fluorophenyl)-7-methyl-2-(2-oxo-2-(((R)-1,1,1-trifluoropropan-2-yl)amino)acetyl)-2,3,3a,4,10,10a-hexahydro-1H,7H-dipyrrolo[3,4-b:3',4'-f][1,4,5]oxathiazocine-8-carboxamide 5,5-dioxide] | < 500
2 | C[C@@H](NC(=O)C(=O)N1C[C@H]2COc3c(cn(C)c3C(=O)Nc3ccc(F)c(F)c3)S(=O)(=O)N[C@H]2C1)C(F)(F)F [Example E2, (3aR,10aR)-N-(3,4-difluorophenyl)-7-methyl-2-(2-oxo-2-(((R)-1,1,1-trifluoropropan-2-yl)amino)acetyl)-2,3,3a,4,10,10a-hexahydro-1H,7H-dipyrrolo[3,4-b:3',4'-f][1,4,5]oxathiazocine-8-carboxamide 5,5-dioxide] | < 500
3 | C[C@@H](NC(=O)C(=O)N1C[C@H]2COc3c(cn(C)c3C(=O)Nc3ccc(F)c(C(F)F)c3)S(=O)(=O)N[C@H]2C1)C(F)(F)F [Example E3, (3aR,10aR)-N-(3-(difluoromethyl)-4-fluorophenyl)-7-methyl-2-(2-oxo-2-(((R)-1,1,1-trifluoropropan-2-yl)amino)acetyl)-2,3,3a,4,10,10a-hexahydro-1H,7H-dipyrrolo[3,4-b:3',4'-f][1,4,5]oxathiazocine-8-carboxamide 5,5-dioxide] | < 500
4 | C[C@@H](NC(=O)C(=O)N1C[C@H]2COc3c(cn(C)c3C(=O)Nc3ccc(F)c(C(F)(F)F)c3)S(=O)(=O)N[C@H]2C1)C(F)(F)F [Example E4, (3aR,10aR)-N-(4-fluoro-3-(trifluoromethyl)phenyl)-7-methyl-2-(2-oxo-2-(((R)-1,1,1-trifluoropropan-2-yl)amino)acetyl)-2,3,3a,4,10,10a-hexahydro-1H,7H-dipyrrolo[3,4-b:3',4'-f][1,4,5]oxathiazocine-8-carboxamide 5,5-dioxide] | < 500
5 | C[C@@H](NC(=O)C(=O)N1C[C@H]2COc3c(c(Cl)n(C)c3C(=O)Nc3ccc(F)c(Cl)c3)S(=O)(=O)N[C@H]2C1)C(F)(F)F [Example E5, (3aR,10aR)-6-chloro-N-(3-chloro-4-fluorophenyl)-7-methyl-2-(2-oxo-2-(((R)-1,1,1-trifluoropropan-2-yl)amino)acetyl)-2,3,3a,4,10,10a-hexahydro-1H,7H-dipyrrolo[3,4-b:3',4'-f][1,4,5]oxathiazocine-8-carboxamide 5,5-dioxide] | < 500
6 | C[C@@H](NC(=O)C(=O)N1C[C@H]2COc3c(c(Cl)n(C)c3C(=O)Nc3ccc(F)c(F)c3)S(=O)(=O)N[C@H]2C1)C(F)(F)F [Example E6, (3aR,10aR)-6-chloro-N-(3,4-difluorophenyl)-7-methyl-2-(2-oxo-2-(((R)-1,1,1-trifluoropropan-2-yl)amino)acetyl)-2,3,3a,4,10,10a-hexahydro-1H,7H-dipyrrolo[3,4-b:3',4'-f][1,4,5]oxathiazocine-8-carboxamide 5,5-dioxide] | < 500
7 | C[C@@H](NC(=O)C(=O)N1C[C@H]2COc3c(c(Cl)n(C)c3C(=O)Nc3ccc(F)c(C(F)F)c3)S(=O)(=O)N[C@H]2C1)C(F)(F)F [Example E7, (3aR,10aR)-6-chloro-N-(3-(difluoromethyl)-4-fluorophenyl)-7-methyl-2-(2-oxo-2-(((R)-1,1,1-trifluoropropan-2-yl)amino)acetyl)-2,3,3a,4,10,10a-hexahydro-1H,7H-dipyrrolo[3,4-b:3',4'-f][1,4,5]oxathiazocine-8-carboxamide 5,5-dioxide] | < 500
8 | C[C@@H](NC(=O)C(=O)N1C[C@H]2COc3c(c(Cl)n(C)c3C(=O)Nc3ccc(F)c(C(F)(F)F)c3)S(=O)(=O)N[C@H]2C1)C(F)(F)F [Example E8, (3aR,10aR)-6-chloro-N-(4-fluoro-3-(trifluoromethyl)phenyl)-7-methyl-2-(2-oxo-2-(((R)-1,1,1-trifluoropropan-2-yl)amino)acetyl)-2,3,3a,4,10,10a-hexahydro-1H,7H-dipyrrolo[3,4-b:3',4'-f][1,4,5]oxathiazocine-8-carboxamide 5,5-dioxide] | < 500
9 | Cc1cc(NC(=O)c2c3c(c(Cl)n2C)S(=O)(=O)N[C@H]2CN(C(=O)C(=O)N[C@H](C)C(F)(F)F)C[C@H]2CO3)ccc1F [Example E9, (3aR,10aR)-6-chloro-N-(4-fluoro-3-methylphenyl)-7-methyl-2-(2-oxo-2-(((R)-1,1,1-trifluoropropan-2-yl)amino)acetyl)-2,3,3a,4,10,10a-hexahydro-1H,7H-dipyrrolo[3,4-b:3',4'-f][1,4,5]oxathiazocine-8-carboxamide 5,5-dioxide] | < 500
